Assay results reported in patent publication US20250120643A1, “INGESTIBLE AND/OR IMPLANTABLE ARTICLES FOR MONITORING ELECTRICAL SIGNALS AND RELATED METHODS” (Massachusetts Institute of Technology, priority 2023, published 2025).
“Also recorded” adds a separate entry of the source.

Key:
gastric slow wave = test: Azithromycin motility experiment: MiGUT recording in the stomach of anesthetized swine before and after intravenous prokinetic delivery; assay type: in vivo, Yorkshire swine; settings: anesthetized pig
Protocol: Motivated by the capability of the MiGUT system to detect gastric slow wave activity, an experiment was designed to test if the changes or modulations in gastric motility could also be detected. The MiGUT system was again placed in the porcine stomach of an anesthetized animal and following baseline recording, azithromycin, a known prokinetic which activates motilin receptors, was intravenously delivered (1 mg/kg total dose) via ear catheter over the course of 5 minutes (FIG. 10A(i)). […] Replicates of this experiment produced similar increases in the slow wave power (FIG. 12).
All animal experiments were approved by and performed in accordance with the Committee on Animal Care at MIT. Yorkshire swine were obtained from Cummings School of Veterinary Medicine at Tufts University (Grafton, MA, USA) for in-vivo experiments. Pigs weighing approximately 60-100 kg were placed on a liquid diet for 24 hours the day before the study and were fasted overnight prior to the study. For device placement, animals were anesthetized using an intramuscular injection of midazolam 0.25 mg/kg and dexmedetomidine 0.03 mg/kg. Following sedation, animals were placed on thermal support and ophthalmic ointment was applied to both eyes. The animal was intubated and placed on isoflurane (2%) in oxygen and connected to a vital signs monitoring system. The MiGUT device was delivered orally into the stomach, using an orogastric tube and imaged using PENTAX EC-3870TLK (160 cm) to visualize the stomach with the animal in the left lateral position.
For azithromycin experiments, following ca. 1 hr of baseline recording in the anesthetized animal, 1 mg/kg animal weight of 20 mg/ml Azithromycin (Sigma-Aldrich) solution (in PBS pH adjusted with HCL, Thermofischer) was delivered via ear catheter over the course of 5 minutes. Measurements were conducted for a minimum of 45 minutes following drug delivery. Power was calculated by summing the square of the voltage measurements in a 25 minute time window. Difference in power was calculated as (Pinitial-Pfinal)/Pinitial.
Finally, to show this system can track changes in motility, Azithromycin was administered halfway during six studies. […] It was intravenously delivered at 1 mg/kg over 5 minutes through an ear catheter. […] This indicates throughout this duration of increased gastric activity (with suspected contractions), the electrodes continued to make good contact. Thus, MiGUT is shown to be able to track changes in gastric motility and maintain a reliable interface with the mucosa.

[1] = tested on: gastric slow wave and all other recorded signals; test: Animal euthanasia study: MiGUT recording during administration of a barbiturate cocktail; assay type: in vivo, Yorkshire swine; settings: pig, euthanization during recording; 1 ml/10 lbs
Source text: In an anesthetized Yorkshire pig, the device was delivered into the stomach and the electrode is shown to unroll and conform to the gastric mucosa along the greater curvature of the stomach (FIG. 7A). The reference electrode was localized near the stomach corpus (Schematic in FIG. 8). One and a half hours of recorded data in this experiment (at 62.5 samples/s) was used to generate a heat map of electrical activity vs time and channel (FIG. 7B(i)). Initial electrical activity seen in all channels following device placement (t=0 to 500 seconds) is most likely due to mechanical stimulation as a consequence of endoscopic visualization following device deployment. Channels near the pylorus (FIG. 7B(ii), channels 0-2) measured large amplitude, prolonged waveforms with periods of ca. 500 seconds with approximately 6 total cycles. […] These signals were also observed in separate experiments using the MiGUT system in different animals (N=5, Table 1).
For non-survival procedures, the animal was sedated with intramuscular injection of Telazol (tiletamine/zolazepam) 5 mg/kg and xylazine 2 mg/kg and euthanized using Fatal Plus (sodium pentobarbital), 1 ml/10 lbs. Heart rate and respiration rate are assessed via vitals monitor to ensure that the pig has been euthanized. […]

## CC[C@H]1OC(=O)[C@H](C)[C@@H](O[C@H]2C[C@@](C)(OC)[C@@H](O)[C@H](C)O2)[C@H](C)[C@@H](O[C@@H]2O[C@H](C)C[C@H](N(C)C)[C@H]2O)[C@](C)(O)C[C@@H](C)CN(C)[C@H](C)[C@@H](O)[C@]1(C)O [azithromycin]
Gastric slow wave; 1 mg/kg i.v. over 5 minutes through ear catheter, six studies
  changes in the respiration and heart rate frequency bands: no significant changes
Gastric slow wave; 1 mg/kg i.v. over 5 minutes through ear catheter, six studies, seen in five of the recording channels
  amplitude of the slow wave: significant increase
Gastric slow wave; 1 mg/kg i.v. over 5 minutes, 25 minutes after vs 25 minutes prior to dosing
  power in the EKG or respiratory frequency windows: no significant change in power
Gastric slow wave; 1 mg/kg i.v. via ear catheter over 5 minutes, 25 minutes after vs 25 minutes prior to dosing, seen in 5 of the 8 recording channels
  power in the slow wave frequency range: noticeable increase in power

## CCCC(C)C1(CC)C(=O)N=C([O-])NC1=O.[Na+] (centres unmarked) [barbiturate cocktail, sodium pentobarbital]
[1]
  effect on waveforms recorded by MiGUT (slow wave and all other signals): terminated; also recorded: cessation of all waveforms
